Reference: US6849596B1, “Regulatory/unfolding peptides of ezrin” (priority 1999, dated 2005)
Where no end group is shown, it is not given here.

Legend:
activated macrophages = experiment: Induction of activated macrophages in mice (peritoneal exsudate); type: in vivo; details: for activity in increasing activated macrophages relative to HEP1: 1.0 microgram peptide/mouse; for Activated macrophages as a percent of total number of cells: 1.0 microgram peptide/mouse injected abdominally, after 24 hours, saline 1.9
Procedure: Groups of three mice (CDAxC57B1)F1 weighing 22-24 g were injected abdominally with each peptide solution of 1.0 microgram of peptide dissolved in 0.5 ml of physiological saline. After 24 hours the animals were killed using neck vertebrae dislocation and 5 ml of Hanks solution was injected into the abdomen. The abdomen was massaged for 30 seconds and then the peritoneal liquid was collected. The collected liquid was filtered using a nylon filter into siliconised tubes containing 1.5 mg/ml EDTA. The number of nucleus containing cells in […] of filtrate were then assessed under microscopic examination using a Nihon hemocytometer. The cells were pelleted by centrifugation for 5 minutes at 800 g, the pellet was resuspended in fetal calf serum, the cell suspension was dropped on to a glass microscope slide and dried then fixed in methanol and stained with Romanovski's colouring agent. Morphological analysis of the cells of the peritoneal exsudate were performed using an Opton optical microscope at 1600 magnifications. The number of lymphocytes, resting macrophages, activated macrophages, granulocytes and other cell types were assessed.

[1] = system: human Peripheral Blood Mononuclear Cells; experiment: In vitro activation of human PBMC, tritiated thymidine incorporation; type: cell-based; details: three days, Control 370
Procedure: Peripheral Blood Mononuclear Cells (PBMC) were separated from the peripheral blood of a […] donor using the standard method of fractionation in a ficoll gradient. The PBMC were suspended in culture medium containing RPMI1640 medium plus 10% fetal calf serum, 1 mM L-glutamin and antibiotics (BM). The cell suspension was placed in wells of a 96 hole microwell plate for cell cultivation, (100 microliters of suspension containing 100,000 cells per well). […] The negative control well contained BM but no peptide. The plate was incubated at 37° C. for three days then radioactive ^3H thymidine was added to a final concentration of 1 microcurie per ml. The incorporation of ^3H thymidine into the DNA of the cells was measured using a betacounter using standard procedures. The experiment was repeated twice and the results expressed as an average of the two experiments in radioactive counts per minute.

[2] = Animal toxicology and pre-clinical testing of HEP1; details: rat and rabbit

| Sequence | activity in increasing activated macrophages relative to HEP1 (activated macrophages) | Activated macrophages as a percent of total number of cells (activated macrophages) | incorporation of 3H thymidine ([1]; Peptide 0.0001 micro g/ml) | incorporation of 3H thymidine ([1]; Peptide 0.0003 micro g/ml) | incorporation of 3H thymidine ([1]; Peptide 0.001 micro g/ml) | incorporation of 3H thymidine ([1]; Peptide 0.003 micro g/ml) | incorporation of 3H thymidine ([1]; Peptide 0.01 micro g/ml) | incorporation of 3H thymidine ([1]; Peptide 0.03 micro g/ml) | incorporation of 3H thymidine ([1]; Peptide 0.1 micro g/ml) | incorporation of 3H thymidine ([1]; Peptide 0.3 micro g/ml) | incorporation of 3H thymidine ([1]; Peptide 1 micro g/ml) | incorporation of 3H thymidine ([1]; Peptide 3 micro g/ml) | incorporation of 3H thymidine ([1]; Peptide 10 micro g/ml) | other results |
| --- | --- | --- | --- | --- | --- | --- | --- | --- | --- | --- | --- | --- | --- | --- |
| KRRETVER (Hepreceptor peptide) [Rupe411] | significantly more active than HEP1 | 5.5% | 385 radioactive counts per minute | 510 radioactive counts per minute | 702 radioactive counts per minute | 598 radioactive counts per minute | 532 radioactive counts per minute | 500 radioactive counts per minute | 499 radioactive counts per minute | 486 radioactive counts per minute | 468 radioactive counts per minute | 420 radioactive counts per minute | 390 radioactive counts per minute |  |
| TEKKRRETVER (Hepreceptor peptide) [Rupe111] | significantly more active than HEP1 | 4.3% | 483 radioactive counts per minute | 483 radioactive counts per minute | 710 radioactive counts per minute | 665 radioactive counts per minute | 537 radioactive counts per minute | 642 radioactive counts per minute | 633 radioactive counts per minute | 668 radioactive counts per minute | 529 radioactive counts per minute | 486 radioactive counts per minute | 470 radioactive counts per minute |  |
| TEKKRRETVEREKE [HEP1, TEKKRRETVEREKE] |  |  |  |  |  |  |  |  |  |  |  |  |  | Chronic toxicity [2]: negative; Effect of 1000× therapeutic dose [2]: negative; Embryotoxicity [2]: negative; Influence on CNS and HVS [2]: negative; Local Irritation [2]: negative; Mutagenic effects [2]: negative; Sub-acute toxicity [2]: negative; Preliminary evaluation of toxicity ([2]; pharmaceutical grade HEP1): negative |
